Here are results for 15 molecules from PubChem BioAssay AID194 (DTP/NCI, 2004).

Records with an inconclusive call do not appear.

This test deals with BDF1 mice, B16 melanoma s.c., survival/tumor T/C. The experiment in a line: NCI In Vivo Anticancer Drug Screen. Data for tumor model B16 Melanoma (subcutaneous) in B6D2F1 (BDF1) mice. On the procedure: The antitumor activity of compounds was measured in mice bearing transplantable tumors. Survival or tumor size were measured and the results are expressed as the measurement made in the treated group (T) divided by the measurement made in the vehicle treated control group (C). The tumor model used in this assay is B16 Melanoma (subcutaneous) in B6D2F1 (BDF1) mice

Setting [1] is: endpoint: median survival time, dose: 2.0 mg/kg/injection, schedule: Q01DX009 (ip), vehicle: saline, higher = longer survival.

Take `Cc1cc(NC(=O)NCc2ccc(N3C(N)=NC(N)=NC3(C)C)cc2)ccc1S(=O)(=O)F`: the T/C runs as follows: (endpoint: median survival time, dose: 50.0 mg/kg/injection, schedule: Q04DX003 (ip), vehicle: saline, higher = longer survival) 106 % of control; (endpoint: median survival time, dose: 100.0 mg/kg/injection, schedule: Q04DX003 (ip), vehicle: saline, higher = longer survival) 95 % of control.
With `O=NN(CCF)C(=O)NC1CCSCC1`, the T/C was 177 % of control (endpoint: median survival time, dose: 31.0 mg/kg/injection, schedule: Q01DX001 (ip), vehicle: saline with Tween-80, higher = longer survival); 186 % of control (endpoint: median survival time, dose: 41.0 mg/kg/injection, schedule: Q01DX001 (ip), vehicle: saline with Tween-80, higher = longer survival); 196 % of control (endpoint: median survival time, dose: 55.0 mg/kg/injection, schedule: Q01DX001 (ip), vehicle: saline with Tween-80, higher = longer survival).
Take `CC1(C)N=C(N)N=C(N)N1c1ccc(CCC(=O)Nc2ccc(S(=O)(=O)F)cc2)c(Cl)c1`: the T/C (endpoint: median survival time, dose: 6.25 mg/kg/injection, schedule: Q01DX009 (ip), vehicle: saline, higher = longer survival) is 108 % of control; the T/C (endpoint: median survival time, dose: 12.5 mg/kg/injection, schedule: Q01DX009 (ip), vehicle: saline, higher = longer survival) was 103 % of control; the T/C (endpoint: median survival time, dose: 25.0 mg/kg/injection, schedule: Q01DX009 (ip), vehicle: saline, higher = longer survival) was 114 % of control.
On to `Cc1c(N)nc(C(CC(N)=O)NCC(N)C(N)=O)nc1C(=O)NC(C(=O)NC(C)C(O)CC(=O)NC(C(=O)NC(OC1OC(C)C(N)C(O)C1O)C(O)c1nc(-c2nc(C(=O)NCCCC(N)CC(=O)NCCCNCCCCN)cs2)cs1)C(C)O)C(OC1OC(CO)C(O)C(O)C1OC1OC(CO)C(O)C(OC(N)=O)C1O)c1cnc[nH]1` (stereo not drawn), for which the T/C runs as follows: (endpoint: median survival time, dose: 1.0 mg/kg/injection, schedule: Q01DX009 (ip), vehicle: saline, higher = longer survival) 173 % of control; under setting [1], 174 % of control; (endpoint: median survival time, dose: 4.0 mg/kg/injection, schedule: Q01DX009 (ip), vehicle: saline, higher = longer survival) 160 % of control.
`CN(Cc1cnc2nc(N)nc(N)c2n1)c1ccc(C(=O)N[C@@H](CCC(=O)O)C(=O)O)cc1`: the T/C is 100 % of control (endpoint: median survival time, dose: 0.5 mg/kg/injection, schedule: Q01DX009 (ip), vehicle: saline with Tween-80, higher = longer survival); 100 % of control (endpoint: median survival time, dose: 1.0 mg/kg/injection, schedule: Q01DX009 (ip), vehicle: saline with Tween-80, higher = longer survival); 89 % of control (endpoint: median survival time, dose: 2.0 mg/kg/injection, schedule: Q01DX009 (ip), vehicle: saline with Tween-80, higher = longer survival); 173 % of control (endpoint: median tumor weight (est.), dose: 0.5 mg/kg/injection, schedule: Q01DX009 (ip), vehicle: saline with Tween-80, higher = larger tumour); 81 % of control (endpoint: median tumor weight (est.), dose: 1.0 mg/kg/injection, schedule: Q01DX009 (ip), vehicle: saline with Tween-80, higher = larger tumour).
Take `Nc1c(Cl)c(Cl)nc(C(=O)O)c1Cl`: the T/C is 108 % of control (endpoint: median survival time, dose: 3.12 mg/kg/injection, schedule: Q02DX009 (ip), vehicle: Klucel (hydroxypropylcellulose) (HPC), higher = longer survival); 105 % of control (endpoint: median survival time, dose: 6.25 mg/kg/injection, schedule: Q01DX015 (sc), vehicle: other, higher = longer survival); 97 % of control (endpoint: median survival time, dose: 6.25 mg/kg/injection, schedule: Q02DX009 (ip), vehicle: Klucel (hydroxypropylcellulose) (HPC), higher = longer survival); 105 % of control (endpoint: median survival time, dose: 12.5 mg/kg/injection, schedule: Q01DX015 (sc), vehicle: other, higher = longer survival); 101 % of control (endpoint: median survival time, dose: 25.0 mg/kg/injection, schedule: Q01DX015 (sc), vehicle: other, higher = longer survival); 94 % of control (endpoint: median survival time, dose: 50.0 mg/kg/injection, schedule: Q02DX009 (ip), vehicle: Klucel (hydroxypropylcellulose) (HPC), higher = longer survival). The T/C is 90 % of control (endpoint: median survival time, dose: 100.0 mg/kg/injection, schedule: Q02DX009 (ip), vehicle: Klucel (hydroxypropylcellulose) (HPC), higher = longer survival) and 87 % of control (endpoint: median survival time, dose: 200.0 mg/kg/injection, schedule: Q02DX009 (ip), vehicle: Klucel (hydroxypropylcellulose) (HPC), higher = longer survival).
Turning to `OC(CBr)C(O)C(O)C(O)CBr` (stereo not drawn), the T/C reads like this: (endpoint: median survival time, dose: 20.0 mg/kg/injection, schedule: Q01DX009 (ip), vehicle: Klucel (hydroxypropylcellulose) (HPC), higher = longer survival) 102 % of control; (endpoint: median survival time, dose: 40.0 mg/kg/injection, schedule: Q01DX009 (ip), vehicle: Klucel (hydroxypropylcellulose) (HPC), higher = longer survival) 106 % of control; (endpoint: median survival time, dose: 125.0 mg/kg/injection, schedule: Q01DX009 (ip), vehicle: Klucel (hydroxypropylcellulose) (HPC), higher = longer survival) 113 % of control; (endpoint: median survival time, dose: 150.0 mg/kg/injection, schedule: Q01DX009 (ip), vehicle: Klucel (hydroxypropylcellulose) (HPC), higher = longer survival) 106 % of control; (endpoint: median survival time, dose: 250.0 mg/kg/injection, schedule: Q01DX009 (ip), vehicle: Klucel (hydroxypropylcellulose) (HPC), higher = longer survival) 123 % of control.
In the case of `COc1cc([C@@H]2c3cc4c(cc3[C@@H](OC3OC5COC(C)OC5C(O)C3O)[C@H]3COC(=O)[C@H]23)OCO4)cc(OC)c1O` (stereo partly drawn), the T/C runs as follows: under setting [1], 169 % of control; (endpoint: median survival time, dose: 3.0 mg/kg/injection, schedule: Q01DX009 (ip), vehicle: saline, higher = longer survival) 117 % of control; (endpoint: median survival time, dose: 34.0 mg/kg/injection, schedule: Q01DX001 (ip), vehicle: saline, higher = longer survival) 117 % of control; (endpoint: median survival time, dose: 40.0 mg/kg/injection, schedule: Q04DX003 (ip), vehicle: saline, higher = longer survival) 156 % of control; (endpoint: median survival time, dose: 50.0 mg/kg/injection, schedule: Q01DX001 (ip), vehicle: saline, higher = longer survival) 117 % of control.
For the molecule `O=NN(CCF)C(=O)NC1C(O)CCCC1O` (stereo not drawn), the T/C reads like this: (endpoint: median survival time, dose: 3.11 mg/kg/injection, schedule: Q01DX007 (ip), vehicle: water, higher = longer survival) 98 % of control; (endpoint: median survival time, dose: 5.18 mg/kg/injection, schedule: Q01DX007 (ip), vehicle: water, higher = longer survival) 103 % of control; (endpoint: median survival time, dose: 8.64 mg/kg/injection, schedule: Q01DX007 (ip), vehicle: water, higher = longer survival) 112 % of control; (endpoint: median survival time, dose: 14.4 mg/kg/injection, schedule: Q01DX007 (ip), vehicle: water, higher = longer survival) 123 % of control.
Regarding `O=C1NC2(CCCCC2)C(=O)N1CCN(CCCl)CCCl`, the T/C by setting is: (endpoint: median survival time, dose: 1.5 mg/kg/injection, schedule: Q01DX009 (ip), vehicle: saline with Tween-80, higher = longer survival) 106 % of control; (endpoint: median survival time, dose: 3.0 mg/kg/injection, schedule: Q01DX009 (ip), vehicle: saline with Tween-80, higher = longer survival) 96 % of control; (endpoint: median survival time, dose: 6.0 mg/kg/injection, schedule: Q01DX009 (ip), vehicle: saline with Tween-80, higher = longer survival) 118 % of control.
Regarding `O=P1(NCCCl)OCCCN1CCCl` (stereo not drawn), the T/C is 154 % of control (endpoint: median survival time, dose: 300.0 mg/kg/injection, schedule: Q01DX001 (ip), vehicle: saline, higher = longer survival) and 150 % of control (endpoint: median survival time, dose: 460.0 mg/kg/injection, schedule: Q01DX001 (ip), vehicle: saline, higher = longer survival).
Consider `CN(C)c1ccc(C(=O)c2ccc(N(C)C)cc2)cc1`, for which the T/C reads like this: (endpoint: median survival time, dose: 100.0 mg/kg/injection, schedule: Q01DX009 (ip), vehicle: Klucel (hydroxypropylcellulose) (HPC), higher = longer survival) 113 % of control; (endpoint: median survival time, dose: 200.0 mg/kg/injection, schedule: Q01DX009 (ip), vehicle: Klucel (hydroxypropylcellulose) (HPC), higher = longer survival) 98 % of control; (endpoint: median survival time, dose: 400.0 mg/kg/injection, schedule: Q01DX009 (ip), vehicle: Klucel (hydroxypropylcellulose) (HPC), higher = longer survival) 110 % of control.
On to `Cc1c(N)nc(C(CC(N)=O)NCC(N)C(N)=O)nc1C(=O)NC(C(=O)NC(C)C(O)C(C)C(=O)NC(C(=O)NCCc1nc(-c2nc(C(=O)NCCCNCCCCN)cs2)cs1)C(C)O)C(OC1OC(CO)C(O)C(O)C1OC1OC(CO)C(O)C(OC(N)=O)C1O)c1cnc[nH]1` (stereo not drawn), for which the T/C (endpoint: median survival time, dose: 1.56 mg/kg/injection, schedule: Q01DX009 (ip), vehicle: water, higher = longer survival) was 164 % of control; the T/C (endpoint: median tumor weight (est.), dose: 1.56 mg/kg/injection, schedule: Q01DX009 (ip), vehicle: water, higher = larger tumour) was 41 % of control; the T/C (endpoint: median tumor weight (est.), dose: 3.12 mg/kg/injection, schedule: Q01DX009 (ip), vehicle: water, higher = larger tumour) is 24 % of control; the T/C (endpoint: median tumor weight (est.), dose: 6.25 mg/kg/injection, schedule: Q01DX009 (ip), vehicle: water, higher = larger tumour) is 12 % of control.
For the molecule `Cn1ncc2c(N)ncnc21`, the T/C was 104 % of control (endpoint: median survival time, dose: 2.0 mg/kg/injection, schedule: Q01DX009 (ip), vehicle: Klucel (hydroxypropylcellulose) (HPC), higher = longer survival); 106 % of control (endpoint: median survival time, dose: 4.0 mg/kg/injection, schedule: Q01DX009 (ip), vehicle: Klucel (hydroxypropylcellulose) (HPC), higher = longer survival); 115 % of control (endpoint: median survival time, dose: 8.0 mg/kg/injection, schedule: Q01DX009 (ip), vehicle: Klucel (hydroxypropylcellulose) (HPC), higher = longer survival).
For `COC(=O)C[C@](O)(CCCC(C)(C)O)C(=O)O[C@@H]1C(OC)=C[C@]23CCCN2CCc2cc4c(cc2[C@H]13)OCO4`, the T/C runs as follows: (endpoint: median survival time, dose: 0.25 mg/kg/injection, schedule: Q01DX009 (ip), vehicle: acid diluted with saline, higher = longer survival) 118 % of control; (endpoint: median survival time, dose: 0.5 mg/kg/injection, schedule: Q01DX009 (ip), vehicle: acid diluted with saline, higher = longer survival) 100 % of control; (endpoint: median survival time, dose: 0.7 mg/kg/injection, schedule: Q01DX009 (ip), vehicle: acid diluted with saline, higher = longer survival) 101 % of control; (endpoint: median survival time, dose: 1.0 mg/kg/injection, schedule: Q01DX009 (ip), vehicle: acid diluted with saline, higher = longer survival) 103 % of control; (endpoint: median survival time, dose: 1.5 mg/kg/injection, schedule: Q01DX009 (ip), vehicle: acid diluted with saline, higher = longer survival) 101 % of control.
